Assay results published in patent publication US20140127158A1, “COMBINATION THERAPY FOR HEPATITIS C VIRUS INFECTION” (National Health Research Institute, priority 2012, published 2014).
Like-named read-outs stand apart in the source and are kept apart here.

Tests used:
Type in all cases: cell-based, Hepatitis C virus
[1] = test system: Infectious HCV, Genotype 2a, JFH1; test: Small molecule inhibition of HCV infectivity (luciferase)
Source text: (5) Small molecule inhibition of HCV infectivity. To quantify the inhibitory effect of DBPR110 on HCV particle formation, HCV replication in DBPR110-treated and untreated cells was quantified using a luciferase activity assay, as described previously. See, e.g., Wakita et al., Nat Med 11:791-6 (2005); and Zhang et al., Antimicrob Agents Chemother 52:666-74 (2008). In vitro-transcribed RNA derived from full-length HCV2a JFH1 infectious cDNA clone with the luciferase reporter gene was delivered to Huh-7.5 cells by electroporation. The cells were seeded at 1×10^5 cells per well in 12-well plates and incubated for 4 h. The medium was then aspirated and replaced with 1 mL of complete medium containing DBPR110 in serial concentration. The plates with compounds were incubated for 72 h and the medium were then used to infect Huh-7.5 cells. Huh-7.5 cells were seeded in 12-well plates (1×10^5 cells/well) in DMEM with 10% FBS for 24 h before infection. The HCV cell culture (HCVcc)-containing supernatant per well was added to the Huh-7.5 cells. After 72 h of incubation at 37° C., the total cell lysate was assayed for luciferase expression (Promega).

[2] = test system: genotype 2a HCV replicon with NS5A amino acid substitutions; test: Transient replicon assay, genotype 2a NS5A amino acid substitutions; settings: for EC50 / EC90: Hepatitis C virus
[3] = test system: HCV genotype 1b replicon (Con1); test: Inhibitory assay for HCV replicons (luciferase), genotype 1b Con1
Protocol: (§1) (2) Cell culture and HCV inhibitors. Huh-7.5 cells and their derivative HCV replicon cell lines were maintained in Dulbecco's modified Eagle's medium (DMEM, Gibco/BRL) that was supplemented with 100 U/mL penicillin-streptomycin (Gibco/BRL), 0.1 mM nonessential amino acid (NEAA, Gibco/BRL) and 10% fetal bovine serum (FBS) heat inactivated at 37° C. in 5% CO2. The HCV replicon cell lines were isolated from colonies as described in Lohman et al., Science 285:110-3 (1999). The culture medium for the replicon cells was additionally supplemented with 0.25 to 0.5 mg/mL of G418, unless specified otherwise. Compound DBPR110 and sofosbuvir were synthesized at the Institute of Biotechnology and Pharmaceutical Research at the National Health Research Institutes in Taiwan. Telaprevir (Lin et al., Antimicrob Agents Chemother, 50:1813-22 (2006)) was purchased from Acme Biosciences (Belmont, Calif.). The compounds were stored at −20° C. as 10 to 500 mM dimethyl sulfoxide (DMSO) stock solutions until the assay. IFN-α was purchased from Calbiochem (La Jolla, Calif.) and stored at −80° C.
(§2) (3) Inhibitory assay for HCV replicons. Cells were seeded at 1×10^4 (high-throughput screening assay) or 1×10^5 (regular assay) cells/well in 96- or 12-well plate, respectively, and incubated for 4 h. The medium was then aspirated and replaced with 0.1 (96-well plate) or 1 (12-well plate) mL of complete medium containing a single compound or combinations of compounds in serial concentration(s). The plates with compounds were incubated for 72 h and then assayed for luciferase expression (Promega). The EC50 of each compound was determined independently and used to determine the range of concentrations used for the combination experiments. All data are presented as the means±standard deviations (SD) from three independent experiments. The selectivity index (SI) was calculated as the ratio of the CC50 to the EC50.

[4] = test system: HCV genotype 2a replicon (JFH1); test: Inhibitory assay for HCV replicons (luciferase), genotype 2a JFH1
Protocol: as §1, §2

[5] = test system: HCV1b replicon; test: Serum shift assay; settings: for EC90 / EC50: Hepatitis C virus; for EC50: read-out: E50
Protocol: (9) Serum shift assay. In the serum shift assay, the inhibitory activity of DBPR110 was determined using replicon 1b in the presence of 10, 20, 30, 40 or 50% fetal bovine serum, or 10 or 40% of extracellular normal human serum.

[6] = Hepatitis C virus, JFH1 replicon cell line

For `O=C(N[C@@H](C(=O)N1CCC[C@H]1c1ncc(-c2ccc(-c3ccc(-c4cnc([C@@H]5CCCN5C(=O)[C@H](NC(=O)C5CC5)c5ccccc5)s4)cc3)cc2)s1)c1ccccc1)C1CC1` [DBPR110], the Selective index ([1]; CC50/EC50, Infectious HCV, Genotype 2a, JFH1) was >720,461, the EC50 ([1]; Hepatitis C virus, read-out: Luciferase activity assay EC50) was 0.0183 nM and the EC90 ([1]; Hepatitis C virus, read-out: Luciferase activity assay EC90) was 0.258 ± 0.0502 nM. The EC50 ([2]; genotype 2a NS5A P58L) was 53 nM, the EC90 ([2]; genotype 2a NS5A P58L) was 89.3 nM and the EC50 ([2]; genotype 2a NS5A Parental) was 0.25 ± 0.032 nM. The EC90 ([2]; genotype 2a NS5A Parental) was 0.592 ± 0.07 nM, the EC50 ([2]; genotype 2a NS5A T24A) was 16.2 nM and the EC90 ([2]; genotype 2a NS5A T24A) was 63.5 nM. For the same compound, the EC50 ([2]; genotype 2a NS5A Y93H) was 760 nM, the EC90 ([2]; genotype 2a NS5A Y93H) was > 5000 nM and the EC50 ([2]; genotype 2a NS5A Y93N) was 51.8 nM. For the same compound, the EC90 ([2]; genotype 2a NS5A Y93N) was 85.2 nM, the “Fold resistance (EC50)” value ([2]; genotype 2a NS5A P58L) was 212 fold and the “Fold resistance (EC90)” value ([2]; genotype 2a NS5A P58L) was 151 fold. For the same compound, the “Fold resistance (EC50)” value ([2]; genotype 2a NS5A Parental) was 1 fold, the “Fold resistance (EC90)” value ([2]; genotype 2a NS5A Parental) was 1 fold and the “Fold resistance (EC50)” value ([2]; genotype 2a NS5A T24A) was 65 fold. For the same compound, the “Fold resistance (EC90)” value ([2]; genotype 2a NS5A T24A) was 107 fold, the “Fold resistance (EC50)” value ([2]; genotype 2a NS5A Y93H) was 3,041 fold and the “Fold resistance (EC90)” value ([2]; genotype 2a NS5A Y93H) was >8,446 fold. For the same compound, the “Fold resistance (EC50)” value ([2]; genotype 2a NS5A Y93N) was 207 fold, the “Fold resistance (EC90)” value ([2]; genotype 2a NS5A Y93N) was 144 fold and the EC50 ([3]; Hepatitis C virus, HCV-1b replicon cell lines, single agent, combination study system, read-out: EC50) was 0.0033 ± 0.0008 nM. The EC50 ([3]; Hepatitis C virus, parental genotype 1b replicon cells, read-out: EC50) was 0.0039 nM, the EC50 ([3]; Hepatitis C virus, Genotype 1b, Con1 replicon cell line, read-out: Luciferase activity assay EC50) was 0.0039 nM and the EC90 ([3]; Hepatitis C virus, Genotype 1b, Con1 replicon cell line, read-out: Luciferase activity assay EC90) was 0.0082 ± 0.0018 nM. For the same compound, the “susceptibility of genotype 1b greater than that of genotype 2a replicon cells” value ([3]; genotype 1b vs genotype 2a replicon cells) was 74 fold, the Selective index ([4]; CC50/EC50, JFH1) was >173,130 and the EC50 [4, 6] was 0.229 nM. For the same compound, the EC90 [4, 6] was 0.465 ± 0.0966 nM, the “Shift fold (EC50)” value ([5]; 10% FBS) was 1.0 fold and the “Shift fold (EC90)” value ([5]; 10% FBS) was 1.0 fold. For the same compound, the “Shift fold (EC50)” value ([5]; 10% NHS (normal human serum)) was 1.0 fold, the “Shift fold (EC90)” value ([5]; 10% NHS (normal human serum)) was 1.0 fold and the “Shift fold (EC50)” value ([5]; 20% FBS) was 1.9 fold. The “Shift fold (EC90)” value ([5]; 20% FBS) was 2.6 fold, the “Shift fold (EC50)” value ([5]; 30% FBS) was 1.8 fold and the “Shift fold (EC90)” value ([5]; 30% FBS) was 2.3 fold. For the same compound, the “Shift fold (EC50)” value ([5]; 40% FBS) was 3.1 fold, the “Shift fold (EC90)” value ([5]; 40% FBS) was 3.8 fold and the “Shift fold (EC50)” value ([5]; 40% NHS (normal human serum)) was 6.3 fold. For the same compound, the “Shift fold (EC90)” value ([5]; 40% NHS (normal human serum)) was 14.1 fold, the “Shift fold (EC50)” value ([5]; 50% FBS) was 5.0 fold and the “Shift fold (EC90)” value ([5]; 50% FBS) was 4.5 fold. The EC90 ([5]; 10% FBS) was 0.0093 ± 0.0034 nM, the EC50 ([5]; 10% FBS) was 0.0043 ± 0.0008 nM and the EC90 ([5]; 10% NHS (normal human serum)) was 0.0416 ± 0.0013 nM. The EC50 ([5]; 10% NHS (normal human serum)) was 0.0335 ± 0.0004 nM, the EC90 ([5]; 20% FBS) was 0.0238 ± 0.011 nM and the EC50 ([5]; 20% FBS) was 0.0081 ± 0.0016 nM. The EC90 ([5]; 30% FBS) was 0.0216 ± 0.017 nM, the EC50 ([5]; 30% FBS) was 0.0079 ± 0.0009 nM and the EC90 ([5]; 40% FBS) was 0.0351 ± 0.0074 nM. The EC50 ([5]; 40% FBS) was 0.0132 ± 0.0017 nM, the EC90 ([5]; 40% NHS (normal human serum)) was 0.588 ± 0.0459 nM and the EC50 ([5]; 40% NHS (normal human serum)) was 0.211 ± 0.0063 nM. The EC90 ([5]; 50% FBS) was 0.0419 ± 0.0072 nM and the EC50 ([5]; 50% FBS) was 0.0215 ± 0.01 nM.
